This passage reports IC50 results from patent US9682925B2, “Cyclopropaneamine compound” (TAKEDA PHARMACEUTICAL COMPANY LIMITED, priority 2011, dated 2017).

pIC50: −log10 of the molar value. Where a name gives a salt, the structure may show the parent alone. Read-outs that look alike come from different tables or passages of the source.

Format in all cases: biochemical
One test concerns the target T1, MAO-B (Homo sapiens, UniProt P27338).
T1 construct: purchased Sigma-Aldrich Co. LLC
T1 sequence (P27338 1-520): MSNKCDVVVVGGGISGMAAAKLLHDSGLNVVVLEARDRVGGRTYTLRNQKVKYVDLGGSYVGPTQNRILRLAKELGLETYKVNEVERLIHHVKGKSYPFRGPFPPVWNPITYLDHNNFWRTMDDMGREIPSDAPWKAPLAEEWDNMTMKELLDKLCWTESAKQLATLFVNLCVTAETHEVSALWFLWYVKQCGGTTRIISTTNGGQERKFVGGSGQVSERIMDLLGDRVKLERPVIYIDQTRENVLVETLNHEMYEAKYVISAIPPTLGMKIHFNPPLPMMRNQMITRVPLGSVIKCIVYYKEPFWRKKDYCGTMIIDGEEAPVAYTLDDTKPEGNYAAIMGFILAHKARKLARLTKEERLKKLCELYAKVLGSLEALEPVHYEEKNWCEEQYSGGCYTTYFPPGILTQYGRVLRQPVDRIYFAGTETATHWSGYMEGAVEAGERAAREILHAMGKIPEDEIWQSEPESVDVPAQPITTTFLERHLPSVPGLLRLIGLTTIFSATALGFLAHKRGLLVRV
Briefly: Measurement of MAO-B inhibitory activity (MAO-Glo Assay). A digest of the protocol: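 Percent inhibition was calculated from luciferin-based luminescence, corrected with a blank lacking enzyme and a control lacking compound. The reaction ran 60 min at room temperature after adding MAO substrate (16 µM as added). This followed a 10 min compound–enzyme preincubation in HEPES pH 7.5 buffer.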

The target of a further test is T2, human LSD1(171-852) (Homo sapiens, UniProt O60341).
T2 construct: to give hLSD1(171-852) purified product; made in house; host or cells: Escherichia coli C43(DE3) pLysS
Briefly: Measurement of LSD1 inhibitory activity (time-resolved fluorescence, biotin-histone H3 mono methylated K4 peptide).

In a further test the target is T3, MAO-A (Homo sapiens, UniProt P21397).
T3 construct: purchased Sigma-Aldrich Co. LLC
T3 sequence (P21397 1-527): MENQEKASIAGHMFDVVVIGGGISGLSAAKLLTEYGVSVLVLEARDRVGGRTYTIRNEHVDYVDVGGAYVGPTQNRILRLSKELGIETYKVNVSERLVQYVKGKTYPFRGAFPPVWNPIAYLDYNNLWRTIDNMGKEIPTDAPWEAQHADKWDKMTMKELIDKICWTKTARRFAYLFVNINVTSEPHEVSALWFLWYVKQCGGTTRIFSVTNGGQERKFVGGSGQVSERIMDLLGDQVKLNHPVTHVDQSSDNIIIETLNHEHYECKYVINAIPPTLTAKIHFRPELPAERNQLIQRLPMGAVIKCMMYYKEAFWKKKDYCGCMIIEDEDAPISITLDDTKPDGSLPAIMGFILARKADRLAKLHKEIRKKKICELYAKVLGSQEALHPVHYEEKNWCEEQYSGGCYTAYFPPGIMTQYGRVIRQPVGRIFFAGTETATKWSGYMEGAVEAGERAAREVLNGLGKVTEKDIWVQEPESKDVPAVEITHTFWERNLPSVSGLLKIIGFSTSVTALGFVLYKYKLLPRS
As to the kind of experiment: Measurement of MAO-A inhibitory activity (MAO-Glo Assay). A digest of the protocol:
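MAO-A (400 ng) was pre-incubated with compound 10 min at room temperature in 100 mM HEPES pH 7.5, 5% glycerol, then MAO substrate (160 μM stock) added for 60 min. Luciferin detection reagent, 20 min, luminescence; % inhibition against no-compound control minus no-enzyme blank.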

The term pIC50 denotes the negative decadic logarithm of the IC50, by convention in mol/L. With `O=C(Nc1ccc([C@@H]2C[C@H]2NCC2CC2)cc1)c1cc(-c2ccccc2)[nH]n1` (relative stereo) [Example 126, N-(4-{trans-2-[(cyclopropyl-methyl)amino]cyclo-propyl}phenyl)-5-phenyl-1H-pyrazole-3-carboxamide], the pIC50 is less than 5.00 against MAO-B, greater than 7.00 on human LSD1(171-852) (read-out: LSD1 IC50 value) and less than 5.00 at MAO-A.

Take `COc1ccc(CN[C@@H]2C[C@H]2c2ccc(NC(=O)c3ccc(-c4ccccc4)cc3)cc2)cc1OC` (relative stereo) [Example 46, N-(4-{trans-2-[(3,4-dimethoxy-benzyl)amino]cyclo-propyl}phenyl)-biphenyl-4-carboxamide]: the pIC50 on MAO-B was less than 5.00; at human LSD1(171-852) (read-out: LSD1 IC50 value), greater than 7.00; at MAO-A, less than 5.00.

For `CC(COc1ccccc1)N[C@@H]1C[C@H]1c1ccc(NC(=O)c2ccc(-c3ccccc3)cc2)cc1` (relative stereo) [Example 56, N-(4-{trans-2-[(1-methyl-2-phenoxyethyl)-amino]cyclo-propyl}phenyl)-biphenyl-4-carboxamide], the pIC50 was less than 5.00 against MAO-B, 6.59 on human LSD1(171-852) (read-out: LSD1 IC50 value) and less than 5.00 against MAO-A.

Regarding `CN(C)c1ccc(CN[C@@H]2C[C@H]2c2ccc(NC(=O)c3cccc(C(F)(F)F)c3)cc2)cc1` (relative stereo) [Example 110, N-[4-(trans-2-{[4-(dimethylamino)benzyl]amino)cyclopropyl}phenyl]-3-(trifluoromethyl)benzamide dihydrochloride], the pIC50 against MAO-B is less than 5.00; on human LSD1(171-852) (read-out: LSD1 IC50 value), greater than 7.00; against MAO-A, less than 5.00.

As to `O=C(Nc1ccc([C@@H]2C[C@H]2NCc2ccc3nccn3c2)cc1)c1cccc(C(F)(F)F)c1` (relative stereo) [Example 107, N-(4-{trans-2-[(imidazo[1,2-a]pyridin-6-ylmethyl)amino]cyclopropyl}phenyl)-3-(trifluoromethyl)benzamide dihydrochloride], the pIC50 against MAO-B was less than 5.00; at human LSD1(171-852) (read-out: LSD1 IC50 value), greater than 7.00; against MAO-A, 5.37.

On to `CC(=O)N1CCC(N[C@@H]2C[C@H]2c2ccc(NC(=O)c3ccc(-c4ccccc4)cc3)cc2)CC1` (relative stereo) [Example 62, N-(4-{trans-2-[(1-acetylpiperidin-4-yl)amino]cyclopropyl}phenyl)biphenyl-4-carboxamide hydrochloride], for which the pIC50 is less than 5.00 against MAO-B, greater than 7.00 at human LSD1(171-852) (read-out: LSD1 IC50 value) and less than 5.00 at MAO-A.

Take `O=C(Nc1ccc([C@@H]2C[C@H]2NCc2ccccc2)cc1)c1cccc(OCc2ccccc2)c1` (relative stereo) [Example 11, N-{4-[trans-2-(benzylamino)cyclopropyl]phenyl}-3-(benzyloxy)benzamide hydrochloride]: the negative logarithm of the IC50 (pIC50) was less than 5.00 at MAO-B, 6.82 on human LSD1(171-852) (read-out: LSD1 IC50 value) and 5.62 on MAO-A.

In the case of `O=C(N[C@@H](Cc1ccccc1)C(=O)Nc1ccc(C2CC2NCc2ccccc2)cc1)OCc1ccccc1` (stereo in doubt) [Example 57, N-{4-[trans-2-(benzylamino)cyclopropyl]phenyl}-Nα-[(benzyloxy)carbonyl]-L-phenylalaninamide hydrochloride], the results for the pIC50 at MAO-B, on human LSD1(171-852) (read-out: LSD1 IC50 value) and against MAO-A were less than 5.00, 6.32 and less than 5.00, respectively.

For `Cc1cc(C(=O)Nc2ccc([C@@H]3C[C@H]3NCC3CC3)cc2)nn1C` (relative stereo) [Example 157, N-(4-{trans-2-[(cyclopropylmethyl)amino]cyclopropyl}phenyl)-1,5-dimethyl-1H-pyrazole-3-carboxamide dihydrochloride], the results for the pIC50 at MAO-B, at human LSD1(171-852) (read-out: LSD1 IC50 value) and on MAO-A were less than 5.00, 7.00 and less than 5.00, respectively.

Turning to `O=C(Nc1ccc([C@@H]2C[C@H]2NCC2CC2)cc1)c1cc2ccccc2o1` (relative stereo) [Example 129, N-(4-{trans-2-[(cyclopropyl-methyl)amino]cyclo-propyl}phenyl)-1-benzofuran-2-carboxamide], the values for the negative logarithm of the IC50 (pIC50) against MAO-B, at human LSD1(171-852) (read-out: LSD1 IC50 value) and at MAO-A were less than 5.00, greater than 7.00 and 5.09, respectively.

Turning to `O=C(Nc1ccc([C@@H]2C[C@H]2NCc2ccccc2)cc1)c1ccccc1` (relative stereo) [Example 1, N-{4-[trans-2-(benzylamino)cyclopropyl]phenyl}benzamide], the pIC50 on MAO-B is 5.01; at human LSD1(171-852) (read-out: LSD1 IC50 value), greater than 7.00; against MAO-A, 5.42.

Consider `CN(C)c1ccccc1CN[C@@H]1C[C@H]1c1ccc(NC(=O)c2cccc(C(F)(F)F)c2)cc1` (relative stereo) [Example 142, N-{4-[trans-2-{[2-(dimethylamino)benzyl]amino}cyclopropyl]phenyl}-3-(trifluoromethyl)benzamide hydrochloride], for which the pIC50 on MAO-B is less than 5.00; on human LSD1(171-852) (read-out: LSD1 IC50 value), 7.00; against MAO-A, less than 5.00.

Consider `O=C(Nc1ccc([C@@H]2C[C@H]2NCC2CC2)cc1)c1n[nH]c2ccccc12` (relative stereo) [Example 128, N-(4-{trans-2-[(cyclopropyl-methyl)amino]cyclo-propyl}phenyl)-1H-indazole-3-carboxamide], for which the pIC50 against MAO-B is less than 5.00; at human LSD1(171-852) (read-out: LSD1 IC50 value) it was greater than 7.00; on MAO-A, 5.28.

`O=C(Nc1ccc([C@@H]2C[C@H]2NCc2ccncc2)cc1)c1ccc(-c2ccccc2)cc1` (relative stereo) [Example 39, N-(4-{trans-2-[(pyridin-4-ylmethyl)amino]-cyclopropyl}-phenyl)biphenyl-4-carboxamide]: the results for the pIC50 at MAO-B, at human LSD1(171-852) (read-out: LSD1 IC50 value) and against MAO-A were less than 5.00, greater than 7.00 and less than 5.00, respectively.

Consider `CN1CCC(N[C@@H]2C[C@H]2c2ccc(NC(=O)c3ccc(-c4ccccc4)cc3)cc2)CC1` (relative stereo) [Example 50, N-(4-{trans-2-[(1-methylpiperidin-4-yl)amino]cyclo-propyl}phenyl)-biphenyl-4-carboxamide], for which the pIC50 was less than 5.00 on MAO-B, greater than 7.00 on human LSD1(171-852) (read-out: LSD1 IC50 value) and less than 5.00 at MAO-A.

As for `CN1C2CCC1CC(N[C@@H]1C[C@H]1c1ccc(NC(=O)c3cccc(C(F)(F)F)c3)cc1)C2` (relative stereo) [Example 149, N-(4-{trans-2-[(8-methyl-8-azabicyclo[3.2.1]oct-3-yl)amino]cyclopropyl}phenyl)-3-(trifluoromethyl)benzamide dihydrochloride], the figures for the pIC50 against MAO-B, against human LSD1(171-852) and against MAO-A were less than 5.00, greater than 7.00 and less than 5.00, respectively.

Turning to `O=C(Nc1ccc([C@@H]2C[C@H]2NCC2CC2)cc1)c1ccc(-n2cccc2)cc1` (relative stereo) [Example 117, N-(4-{trans-2-[(cyclopropylmethyl)amino]cyclopropyl}-phenyl)-4-(1H-pyrrol-1-yl)benzamide], the pIC50 against MAO-B is less than 5.00; at human LSD1(171-852) (read-out: LSD1 IC50 value) it was greater than 7.00; at MAO-A it was 5.12.

`O=C(Nc1ccc([C@@H]2C[C@H]2NCC2CC2)cc1)c1nc(-c2ccccc2)cs1` (relative stereo) [Example 125, N-(4-{trans-2-[(cyclopropyl-methyl)amino]cyclo-propyl}phenyl)-4-phenyl-1,3-thiazole-2-carboxamide]: the pIC50 against MAO-B was less than 5.00; on human LSD1(171-852) (read-out: LSD1 IC50 value), greater than 7.00; against MAO-A, 5.60.

For the molecule `Cc1ccc(C)c(C(=O)Nc2ccc([C@@H]3C[C@H]3NCC3CC3)cc2)c1` (relative stereo) [Example 106, N-(4-{trans-2-[(cyclopropylmethyl)amino]cyclopropyl}phenyl)-2,5-dimethylbenzamide hydrochloride], the figures for the pIC50 at MAO-B, at human LSD1(171-852) (read-out: LSD1 IC50 value) and against MAO-A were less than 5.00, greater than 7.00 and less than 5.00, respectively.

For the molecule `CC(C)(C)n1cc(C(=O)Nc2ccc([C@@H]3C[C@H]3NCC3CC3)cc2)cn1` (relative stereo) [Example 164, 1-tert-butyl-N-(4-{trans-2-[(cyclopropylmethyl)amino]cyclopropyl}phenyl)-1H-pyrazole-4-carboxamide hydrochloride], the results for the pIC50 against MAO-B, at human LSD1(171-852) (read-out: LSD1 IC50 value) and on MAO-A were less than 5.00, 6.70 and less than 5.00, respectively.
